Data from US20160312315A1, “Methods and Compositions for Determining Virus Susceptibility to Integrase Inhibitors” (Laboratory Corporation of America Holdings, priority 2011, published 2016).

Experiments:
Format in all cases: cell-based, HIV-1
[1] = system: Y143R site directed mutant virus; assay: PhenoSense raltegravir susceptibility assay, site directed mutant viruses; conditions: Y143R mutation alone, SDM virus vs NL4-3
Procedure: (§1) Raltegravir susceptibility tests performed with resistance test vectors were carried out using packaging host and target host cells consisting of the human embryonic kidney cell line 293. Susceptibility tests were carried out with the RTV libraries by using viral particles comprising the RTV libraries to infect a host cell in which the expression of the indicator gene is measured. The amount of indicator gene (luciferase) activity detected in infected cells is used as a direct measure of “infectivity,” i.e., the ability of the virus to complete a single round of replication. Thus, drug susceptibility can be determined by plotting the amount of luciferase activity produced by patient derived viruses in the presence of varying concentrations of the antiviral drug. By identifying the concentration of drug at which luciferase activity is half-maximum, the IC50 of the virus from which patient-derived segment(s) were obtained for the antiretroviral agent can be determined. The IC50 provides a direct measure of the susceptibility of the HIV infecting the patient to raltegravir.
(§2) In the susceptibility tests, packaging host (293) cells were seeded in 10-cm-diameter dishes and were transfected one day after plating with test vector plasmid DNA and the envelope expression vector. Transfections were performed using a calcium-phosphate co-precipitation procedure. The cell culture media containing the DNA precipitate was replaced with fresh medium, from one to 24 hours, after transfection. […] Alternatively, cells were lysed, and luciferase was measured by adding Steady-Glo (Promega Corp.; Madison, Wis.) reagent directly to each well without aspirating the culture media from the well. […]
(§3) Site directed mutant (SDM) viruses were created that had only the specific integrase mutation listed on the x-axis of FIG. 8A, 8B, or 8C. FIGS. 8A, 8B, and 8C are graphs showing the fold change (FC) in raltegravir susceptibility of the SDM viruses, as compared to the raltegravir susceptibility of an NL4-3 virus and determined by the PhenoSense assay. […]

[2] = system: Y143R plus T97A site directed mutant virus; assay: as above; conditions: SDM virus vs NL4-3
Procedure: as §1, §2, §3

[3] = system: other Y143X (Y143H/C/S/G) site directed mutant viruses; assay: as above; conditions: other Y143X substitutions alone, SDM viruses vs NL4-3
Procedure: as §1, §2, §3

[4] = system: other Y143X plus T97A site directed mutant viruses
Procedure: (§4) Raltegravir susceptibility tests performed with resistance test vectors were carried out using packaging host and target host cells consisting of the human embryonic kidney cell line 293. Susceptibility tests were carried out with the RTV libraries by using viral particles comprising the RTV libraries to infect a host cell in which the expression of the indicator gene is measured. The amount of indicator gene (luciferase) activity detected in infected cells is used as a direct measure of “infectivity,” i.e., the ability of the virus to complete a single round of replication. Thus, drug susceptibility can be determined by plotting the amount of luciferase activity produced by patient derived viruses in the presence of varying concentrations of the antiviral drug. By identifying the concentration of drug at which luciferase activity is half-maximum, the IC50 of the virus from which patient-derived segment(s) were obtained for the antiretroviral agent can be determined. […]
(§5) In the susceptibility tests, packaging host (293) cells were seeded in 10-cm-diameter dishes and were transfected one day after plating with test vector plasmid DNA and the envelope expression vector. […] Alternatively, cells were lysed, and luciferase was measured by adding Steady-Glo (Promega Corp.; Madison, Wis.) reagent directly to each well without aspirating the culture media from the well. […]

[5] = system: Y143R plus S230R site directed mutant virus; assay: PhenoSense raltegravir susceptibility assay, site directed mutant viruses; conditions: SDM virus, compared with Y143R alone
Procedure: as §4, §5

[6] = system: Y143C/G/S plus S230R site directed mutant viruses; assay: as above; conditions: SDM viruses vs NL4-3
Procedure: as §4, §5

With `Cc1nnc(C(=O)NC(C)(C)c2nc(C(=O)NCc3ccc(F)cc3)c(O)c(=O)n2C)o1` [raltegravir] the “fold change in IC50 (FC), reduction in RAL susceptibility” value (shortened to “fold change in IC50 (FC), reduction”) [1] was 20, the “fold change in IC50 (FC), reduction” value [2] was 70 and the “fold change in IC50 (FC), reduction” value [3] was 3-6. The “fold change in IC50 (FC), reduction” value [4] was 7-16, the “further reduction in RAL susceptibility on addition of S230R” value [5] was “did not” and the “fold change in IC50 (FC), reduction” value [6] was 15-24.
